Values joined by “and” are separate entries in the source; they are usually repeats but may differ in a detail not shown here. Equal entries are not always repeated. Numbers after ± are expanded uncertainties.
Legend:
[1] = Crystal, Calculated from knudsen effusion weight loss
[2] = molar enthalpy of vaporization or sublimation; conditions: 298.15 K; Crystal; Static calorimetry

SMILES	vapor or sublimation pressure ([1]; 301.2 K)	vapor or sublimation pressure ([1]; 303.19 K)	vapor or sublimation pressure ([1]; 305.1 K)	vapor or sublimation pressure ([1]; 307.19 K)	vapor or sublimation pressure ([1]; 309.18 K)	vapor or sublimation pressure ([1]; 311.1 K)	vapor or sublimation pressure ([1]; 313.19 K)	vapor or sublimation pressure ([1]; 315.19 K)	vapor or sublimation pressure ([1]; 317.1 K)	vapor or sublimation pressure ([1]; 319.18 K)	vapor or sublimation pressure ([1]; 321.15 K)	vapor or sublimation pressure ([1]; 323.09 K)	molar enthalpy [2] [kcal/mol]
O=C(CCl)c1ccc(Cl)cc1 [2,4'-dichloroacetophenone]	8.5e-05 ± 4e-06 kPa and 7.6e-05 ± 4e-06 kPa and 7.9e-05 ± 4e-06 kPa	9.9e-05 ± 5e-06 kPa and 0.000105 ± 5e-06 kPa and 0.000103 ± 5e-06 kPa	0.000133 ± 7e-06 kPa and 0.000131 ± 7e-06 kPa and 0.000134 ± 7e-06 kPa	0.000165 ± 8e-06 kPa and 0.000178 ± 9e-06 kPa	0.000218 ± 1.1e-05 kPa and 0.000214 ± 1.1e-05 kPa and 0.000221 ± 1.1e-05 kPa	0.00027 ± 1.4e-05 kPa and 0.000271 ± 1.4e-05 kPa and 0.000278 ± 1.4e-05 kPa	0.000344 ± 1.7e-05 kPa and 0.000341 ± 1.7e-05 kPa and 0.000359 ± 1.8e-05 kPa	0.000447 ± 2.2e-05 kPa and 0.000437 ± 2.2e-05 kPa and 0.000448 ± 2.2e-05 kPa	0.000561 ± 2.8e-05 kPa and 0.000553 ± 2.8e-05 kPa and 0.000562 ± 2.8e-05 kPa	0.000699 ± 3.5e-05 kPa and 0.000686 ± 3.4e-05 kPa and 0.000757 ± 3.8e-05 kPa	0.000903 ± 4.5e-05 kPa and 0.000911 ± 4.6e-05 kPa and 0.000875 ± 4.4e-05 kPa	0.001131 ± 0.00012 kPa and 0.001115 ± 0.00011 kPa and 0.001107 ± 0.00011 kPa	–
O=C(CCl)c1ccccc1 [2-chloroacetophenone]	–	–	–	–	–	–	–	–	–	–	–	–	21 ± 0.406

Source: the NIST ThermoML archive (doi:10.1016/j.jct.2013.07.026)
